# From US8076487B2, “Pyridone derivative and herbicide” (Kumiai Chemical Industry Co., Ltd., priority 2006, dated 2011)
# Columns and labels:
# Format in all cases: in vivo
# [1] = tested on: slender amaranth (Amaranthus viridis L.); assay: Test Example 3: herbicidal effect by application to upland field (foliage treatment); settings: foliage treatment, 1,000 g active ingredient per 1 hectare, 14th day after application, greenhouse
# Procedure, shortened: (§1)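 Two weeks after sowing in field soil under greenhouse conditions, seedlings receive a top-down foliar spray of wettable powder diluted in water at an active-ingredient rate of 1,000 g per hectare. Effect is rated against a standard 14 days post-treatment.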
# [2] = tested on: green foxtail (Setaria viridis (L.) P. Beauv.); assay: as above; settings: foliage treatment, 1,000 g active ingredient per 1 hectare, 14th day after application, greenhouse
# Procedure, shortened: as §1
# [3] = tested on: barnyardgrass (Echinochloa crus-galli (L.) P. Beauv. var. crus-galli); assay: as above; settings: foliage treatment, 1,000 g active ingredient per 1 hectare, 14th day after application, greenhouse
# Procedure, shortened: as §1
# [4] = tested on: velvetleaf (Abutilon theophrasti medicus); assay: as above; settings: foliage treatment, 1,000 g active ingredient per 1 hectare, 14th day after application, greenhouse
# Procedure, shortened: as §1
# [5] = tested on: heartshape false pickerelweed (Monochoria vaginalis (Burm.f.) C.Presl); assay: Test Example 1: herbicidal effect by soil application to paddy field; settings: paddy field soil application; active ingredient 1,000 g per 1 hectare; wettable powder added dropwise to water surface the day after sowing; examined on the 21st day after application
# Procedure, shortened: (§2)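 Under greenhouse conditions, seeds sown on puddled paddy soil in 100 cm2 pots under 3 cm of standing water received the test compound; injury was assessed with a standard scoring scheme three weeks (day 21) after treatment.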
# [6] = tested on: early watergrass (Echinochloa oryzicola Vasing); assay: as above; settings: paddy field soil application; active ingredient 1,000 g per 1 hectare; wettable powder added dropwise to water surface the day after sowing; examined on the 21st day after application
# Procedure, shortened: as §2
# [7] = tested on: Japanese bulrush (Scirpus juncoides Roxb.); assay: as above; settings: paddy field soil application; active ingredient 1,000 g per 1 hectare; wettable powder added dropwise to water surface the day after sowing; examined on the 21st day after application
# Procedure, shortened: as §2
# [8] = tested on: slender amaranth (Amaranthus viridis L.); assay: Test Example 2: herbicidal effect by soil application to upland field; settings: soil surface spray, upland field soil, 1,000 g active ingredient per hectare, 21st day after application
# Procedure, shortened: (§3)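 Herbicidal activity was graded on a standard scale on day 21 after soil application. The covered, freshly sown pots of field soil received an aqueous wettable-powder spray delivering 1,000 g active ingredient/ha at 1,000 liters/ha and were kept in a greenhouse.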
# [9] = tested on: green foxtail (Setaria viridis (L.) P. Beauv.); assay: as above; settings: soil surface spray, upland field soil, 1,000 g active ingredient per hectare, 21st day after application
# Procedure, shortened: as §3
# [10] = tested on: barnyardgrass (Echinochloa crus-galli (L.) P. Beauv. var. crus-galli); assay: as above; settings: soil surface spray, upland field soil, 1,000 g active ingredient per hectare, 21st day after application
# Procedure, shortened: as §3
# [11] = tested on: velvetleaf (Abutilon theophrasti medicus); assay: as above; settings: soil surface spray, upland field soil, 1,000 g active ingredient per hectare, 21st day after application
# Procedure, shortened: as §3
Compound,"herbicidal effect, Slender Amaranth [1]","herbicidal effect, Green Foxtail [2]","herbicidal effect, Barnyardgrass [3]","herbicidal effect, Velvetleaf [4]","herbicidal effect, Monochoria vaginalis (Burm. f.) C. Presl [5]","herbicidal effect, Echinochloa oryzicola Vasing [6]","herbicidal effect, Scirpus juncoides Roxb. [7]","herbicidal effect (index), Slender Amaranth [8]","herbicidal effect (index), Green Foxtail [9]","herbicidal effect (index), Barnyardgrass [10]","herbicidal effect (index), Velvetleaf [11]"
Cc1ccsc1-n1c(C(F)(F)F)ccc(C(=O)C2=C(O)CCCC2=O)c1=O [I-149],5 (90% or more of herbicidal effect and crop phytotoxicity),5 (90% or more of herbicidal effect and crop phytotoxicity),5 (90% or more of herbicidal effect and crop phytotoxicity),5 (90% or more of herbicidal effect and crop phytotoxicity),5 (90% or more of herbicidal effect and crop phytotoxicity),5 (90% or more of herbicidal effect and crop phytotoxicity),5 (90% or more of herbicidal effect and crop phytotoxicity),5 (90% or more of herbicidal effect and crop phytotoxicity),5 (90% or more of herbicidal effect and crop phytotoxicity),5 (90% or more of herbicidal effect and crop phytotoxicity),5 (90% or more of herbicidal effect and crop phytotoxicity)
O=C1CCCC(O)=C1C(=O)c1ccc(C(F)(F)F)n(-c2ccccn2)c1=O [I-150],5 (90% or more of herbicidal effect and crop phytotoxicity),5 (90% or more of herbicidal effect and crop phytotoxicity),5 (90% or more of herbicidal effect and crop phytotoxicity),5 (90% or more of herbicidal effect and crop phytotoxicity),5 (90% or more of herbicidal effect and crop phytotoxicity),5 (90% or more of herbicidal effect and crop phytotoxicity),5 (90% or more of herbicidal effect and crop phytotoxicity),5 (90% or more of herbicidal effect and crop phytotoxicity),5 (90% or more of herbicidal effect and crop phytotoxicity),5 (90% or more of herbicidal effect and crop phytotoxicity),5 (90% or more of herbicidal effect and crop phytotoxicity)
COc1cncc(-n2c(C(F)(F)F)ccc(C(=O)C3=C(O)CCCC3=O)c2=O)c1 [I-151],5 (90% or more of herbicidal effect and crop phytotoxicity),5 (90% or more of herbicidal effect and crop phytotoxicity),5 (90% or more of herbicidal effect and crop phytotoxicity),5 (90% or more of herbicidal effect and crop phytotoxicity),5 (90% or more of herbicidal effect and crop phytotoxicity),5 (90% or more of herbicidal effect and crop phytotoxicity),5 (90% or more of herbicidal effect and crop phytotoxicity),5 (90% or more of herbicidal effect and crop phytotoxicity),5 (90% or more of herbicidal effect and crop phytotoxicity),5 (90% or more of herbicidal effect and crop phytotoxicity),5 (90% or more of herbicidal effect and crop phytotoxicity)
O=C1CCCC(O)=C1C(=O)c1ccc(C(F)(F)F)n(CC2CCOC2)c1=O (stereo not shown) [I-154],5 (90% or more of herbicidal effect and crop phytotoxicity),5 (90% or more of herbicidal effect and crop phytotoxicity),4 (70 to less than 90% of herbicidal effect and crop phytotoxicity),5 (90% or more of herbicidal effect and crop phytotoxicity),5 (90% or more of herbicidal effect and crop phytotoxicity),5 (90% or more of herbicidal effect and crop phytotoxicity),5 (90% or more of herbicidal effect and crop phytotoxicity),5 (90% or more of herbicidal effect and crop phytotoxicity),3 (50 to less than 70% of herbicidal effect and crop phytotoxicity),4 (70 to less than 90% of herbicidal effect and crop phytotoxicity),5 (90% or more of herbicidal effect and crop phytotoxicity)
Nn1c(C(F)(F)F)ccc(C(=O)C2=C(O)CCCC2=O)c1=O [I-156],5 (90% or more of herbicidal effect and crop phytotoxicity),4 (70 to less than 90% of herbicidal effect and crop phytotoxicity),5 (90% or more of herbicidal effect and crop phytotoxicity),5 (90% or more of herbicidal effect and crop phytotoxicity),5 (90% or more of herbicidal effect and crop phytotoxicity),5 (90% or more of herbicidal effect and crop phytotoxicity),5 (90% or more of herbicidal effect and crop phytotoxicity),5 (90% or more of herbicidal effect and crop phytotoxicity),4 (70 to less than 90% of herbicidal effect and crop phytotoxicity),5 (90% or more of herbicidal effect and crop phytotoxicity),5 (90% or more of herbicidal effect and crop phytotoxicity)
CCNn1c(C(F)(F)F)ccc(C(=O)C2=C(O)CCCC2=O)c1=O [I-158],5 (90% or more of herbicidal effect and crop phytotoxicity),5 (90% or more of herbicidal effect and crop phytotoxicity),5 (90% or more of herbicidal effect and crop phytotoxicity),5 (90% or more of herbicidal effect and crop phytotoxicity),5 (90% or more of herbicidal effect and crop phytotoxicity),5 (90% or more of herbicidal effect and crop phytotoxicity),5 (90% or more of herbicidal effect and crop phytotoxicity),5 (90% or more of herbicidal effect and crop phytotoxicity),5 (90% or more of herbicidal effect and crop phytotoxicity),5 (90% or more of herbicidal effect and crop phytotoxicity),5 (90% or more of herbicidal effect and crop phytotoxicity)
CCCNn1c(C(F)(F)F)ccc(C(=O)C2=C(O)CCCC2=O)c1=O [I-159],5 (90% or more of herbicidal effect and crop phytotoxicity),5 (90% or more of herbicidal effect and crop phytotoxicity),5 (90% or more of herbicidal effect and crop phytotoxicity),5 (90% or more of herbicidal effect and crop phytotoxicity),5 (90% or more of herbicidal effect and crop phytotoxicity),5 (90% or more of herbicidal effect and crop phytotoxicity),5 (90% or more of herbicidal effect and crop phytotoxicity),5 (90% or more of herbicidal effect and crop phytotoxicity),5 (90% or more of herbicidal effect and crop phytotoxicity),5 (90% or more of herbicidal effect and crop phytotoxicity),5 (90% or more of herbicidal effect and crop phytotoxicity)
CCCCNn1c(C(F)(F)F)ccc(C(=O)C2=C(O)CCCC2=O)c1=O [I-161],5 (90% or more of herbicidal effect and crop phytotoxicity),5 (90% or more of herbicidal effect and crop phytotoxicity),5 (90% or more of herbicidal effect and crop phytotoxicity),5 (90% or more of herbicidal effect and crop phytotoxicity),5 (90% or more of herbicidal effect and crop phytotoxicity),5 (90% or more of herbicidal effect and crop phytotoxicity),5 (90% or more of herbicidal effect and crop phytotoxicity),5 (90% or more of herbicidal effect and crop phytotoxicity),5 (90% or more of herbicidal effect and crop phytotoxicity),5 (90% or more of herbicidal effect and crop phytotoxicity),5 (90% or more of herbicidal effect and crop phytotoxicity)
